ChEMBL document CHEMBL6083246 (Bioorg Med Chem, 2024)
Active and inactive are the calls of the source. No cut-off for these calls is given here.

Key:
RAW264.7 [1] = test: Cytotoxicity against mouse RAW264.7 cells assessed as reduction in cell viability at 1080 uM incubated for 24 hrs by CCK8 assay; assay type: toxicity, cell-based; conditions: raw264.7, 24 h
RAW264.7 [2] = test: Antiinflammatory activity in LPS induced mouse RAW264.7 cells assessed as reduction in TNFalpha production at 50 uM incubated for 24 hrs by ELISA; assay type: functional, cell-based
RAW264.7 [3] = test: Antiinflammatory activity in LPS induced mouse RAW264.7 cells assessed as reduction in NO production incubated for 24 hrs by Griess reagent based assay; assay type: functional, cell-based
RAW264.7 [4] = test: Cytotoxicity against mouse RAW264.7 cells assessed as reduction in cell viability at < 640 uM incubated for 24 hrs by CCK8 assay; assay type: toxicity, cell-based; conditions: raw264.7, 24 h
RAW264.7 [5] = test: Antiinflammatory activity in LPS induced mouse RAW264.7 cells assessed as reduction in IL-6 production at 50 uM incubated for 24 hrs by ELISA; assay type: functional, cell-based
[6] = target: Aldo-keto reductase family 1 member B1 (Mus musculus) (UniProt P45376); test: Induction of thermal stabilization of AKR1B1 in mouse RAW264.7 cells at 50 uM at 45 to 75 degreeC incubated for 2 hrs by cellular thermal shift assay; assay type: cell-based
RAW264.7 [7] = test: Antiinflammatory activity in LPS induced mouse RAW264.7 cells assessed as reduction in NO production at 50 uM incubated for 24 hrs by Griess reagent based assay; assay type: functional, cell-based
RAW264.7 [8] = test: Antiinflammatory activity in LPS induced mouse RAW264.7 cells reduction in ROS production incubated for 24 hrs by DCFH-DA staining based microplate reader analysis; assay type: functional, cell-based
RAW264.7 [9] = test: Antiinflammatory activity in LPS induced mouse RAW264.7 cells reduction in ROS production at 50 uM incubated for 24 hrs by DCFH-DA staining based microplate reader analysis; assay type: functional, cell-based

| Structure (SMILES) | Activity (RAW264.7 [1]) | Activity (RAW264.7 [2]) | Activity (RAW264.7 [3]) | Activity (RAW264.7 [4]) | Activity (RAW264.7 [5]) | Activity [6] | Activity (RAW264.7 [7]) | Activity (RAW264.7 [8]) | Activity (RAW264.7 [9]) |
| --- | --- | --- | --- | --- | --- | --- | --- | --- | --- |
| O=C(/C=C/c1ccc(O)c(O)c1)O[C@@H]1C[C@](O)(C(=O)O)C[C@@H](O)[C@H]1O [CHLOROGENIC ACID] | Toxic | Active; Showed Higher Activity Compared To 4-Cqa And 5-Cqa | Dose-dependent-effect | Non-toxic | Active; Showed Higher Activity Compared To 4-Cqa And 5-Cqa | Active | Active; Showed Higher Activity Compared To 4-Cqa And 5-Cqa | Dose-dependent-effect | Active |
| CC(/C=C1\SC(=S)N(CC(=O)O)C1=O)=C\c1ccccc1 |  | Active |  |  | Active |  |  |  |  |
| O=C(/C=C/c1ccc(O)c(O)c1)O[C@H]1[C@H](O)C[C@](O)(C(=O)O)C[C@H]1O | Toxic | Active; Showed Higher Activity Compared To 5-Cqa | Dose-dependent-effect | Non-toxic |  | Active |  | Dose-dependent-effect |  |
| O=C(/C=C/c1ccc(O)c(O)c1)O[C@@H]1C[C@@](O)(C(=O)O)C[C@@H](O)[C@@H]1O | Toxic |  | Dose-dependent-effect | Non-toxic |  | Active |  | Dose-dependent-effect |  |
